Biological target: T1, F508delCFTR (Homo sapiens, UniProt P13569, DEL508-508)
T1 construct: expressed in transfected cells; host or cells: CFBE41o- (human lung derived epithelial cell line), doxycycline-inducible
Experiment: Cell Surface Expression-Horse Radish Peroxidase (CSE-HRP) assay
Format: cell-based
Conditions: CFBE41o-F508delCFTR-HRP cells; for EC50: F508delCFTR cell surface expression, luminescence, 18-24 hours at 33° C., highest concentration 20 μM; for Maximum % activity: maximum at any tested concentration, normalized to on-plate positive control (3 μM)
Description: Cell Surface Expression-Horse Radish Peroxidase (CSE-HRP) Assay:
A cellular assay for measuring the F508delCFTR cell surface expression after correction with test compounds was developed in human lung derived epithelial cell line (CFBE41o-) (Veit G et al, (2012) Mol Biol Cell. 23(21): 4188-4202). This was achieved by expressing the F508delCFTR mutation along with a horseradish peroxidase (HRP) in the fourth exofacial loop and then measuring the HRP activity using luminescence readout from these cells, CFBE41o-F508delCFTR-HRP, that were incubated overnight with the test corrector compounds. Briefly, for this primary assay, the CFBE41o-F508delCFTR-HRP cells were plated in 384-well plates (Greiner Bio-one; Cat 781080) at 4,000 cells/well along with 0.5 μg/mL doxycycline to induce the F508delCFTR-HRP expression and further incubated at 37° C., 5% CO2 for 72 hours. The test compounds were then added at the required concentrations and further incubated for 18-24 hours at 33° C. The highest concentration tested was 20 μM with an 8-point concentration response curve using a 3-fold dilution. Three replicate plates were run to determine one EC50. All plates contained negative controls (dimethyl sulfoxide, DMSO) and positive controls (3 μM of 3-[(2R,4R)-4-({[1-(2,2-difluoro-1,3-benzodioxol-5-yl)cyclopropyl]carbonyl}amino)-7-methoxy-3,4-dihydro-2H-chromen-2-yl]benzoic acid) as well as on-plate concentration response of the positive control. Post incubation, the plates were washed 5× times with Dulbecco's phosphate buffered saline (DPBS), followed by the addition of the HRP substrate, luminol (50 μL), and measuring the HRP activity using luminescence readout on EnVision® Multilabel Plate Reader (Perkin Elmer; product number 2104-0010). The raw counts from the experiment are analyzed using Accelrys® Assay Explorer v3.3.
Z′ greater than 0.5 was used as passing quality control criteria for the plates.
The Z′ is defined as: 1−[3*SDPositive Control+3*SDNegative Control/Absolute(MeanPositive Control−MeanNegative Control)] wherein “SD” is standard deviation.
The % activity measured at each of the 8 test concentrations of the test compound was normalized to the on-plate positive control using the following formula: % activity=[(test compound response−DMSO response)/(positive control response−DMSO response)]*100
The maximum % activity achieved for the test compound at any tested concentration is presented in Table 1 along with the EC50 calculated using the following general sigmoidal curve with variable Hill slope equation (described as Model 42 in the Accelrys® Assay Explorer v3.3 software): y=(a−d)/(1+(x/c)^b)+d
General sigmoidal curve with concentration, response, top, bottom, EC50 and Hill slope.
This model describes a sigmoidal curve with an adjustable baseline, a. The equation can be used to fit curves where response is either increasing or decreasing with respect to the independent variable, “x”. • “x” is a concentration of drug under test. • “y” is the response. • “a” is the maximum response, and “d” is the minimum response • “c” is the inflection point (EC50) for the curve. That is, “y” is halfway between the lower and upper asymptotes when x=c. • “b” is the slope-factor or Hill coefficient. The sign of b is positive when the response increases with increasing dose and is negative when the response decreases with increasing dose (inhibition).

T1 sequence (P13569 with tags, fused parts or gaps DEL508-508): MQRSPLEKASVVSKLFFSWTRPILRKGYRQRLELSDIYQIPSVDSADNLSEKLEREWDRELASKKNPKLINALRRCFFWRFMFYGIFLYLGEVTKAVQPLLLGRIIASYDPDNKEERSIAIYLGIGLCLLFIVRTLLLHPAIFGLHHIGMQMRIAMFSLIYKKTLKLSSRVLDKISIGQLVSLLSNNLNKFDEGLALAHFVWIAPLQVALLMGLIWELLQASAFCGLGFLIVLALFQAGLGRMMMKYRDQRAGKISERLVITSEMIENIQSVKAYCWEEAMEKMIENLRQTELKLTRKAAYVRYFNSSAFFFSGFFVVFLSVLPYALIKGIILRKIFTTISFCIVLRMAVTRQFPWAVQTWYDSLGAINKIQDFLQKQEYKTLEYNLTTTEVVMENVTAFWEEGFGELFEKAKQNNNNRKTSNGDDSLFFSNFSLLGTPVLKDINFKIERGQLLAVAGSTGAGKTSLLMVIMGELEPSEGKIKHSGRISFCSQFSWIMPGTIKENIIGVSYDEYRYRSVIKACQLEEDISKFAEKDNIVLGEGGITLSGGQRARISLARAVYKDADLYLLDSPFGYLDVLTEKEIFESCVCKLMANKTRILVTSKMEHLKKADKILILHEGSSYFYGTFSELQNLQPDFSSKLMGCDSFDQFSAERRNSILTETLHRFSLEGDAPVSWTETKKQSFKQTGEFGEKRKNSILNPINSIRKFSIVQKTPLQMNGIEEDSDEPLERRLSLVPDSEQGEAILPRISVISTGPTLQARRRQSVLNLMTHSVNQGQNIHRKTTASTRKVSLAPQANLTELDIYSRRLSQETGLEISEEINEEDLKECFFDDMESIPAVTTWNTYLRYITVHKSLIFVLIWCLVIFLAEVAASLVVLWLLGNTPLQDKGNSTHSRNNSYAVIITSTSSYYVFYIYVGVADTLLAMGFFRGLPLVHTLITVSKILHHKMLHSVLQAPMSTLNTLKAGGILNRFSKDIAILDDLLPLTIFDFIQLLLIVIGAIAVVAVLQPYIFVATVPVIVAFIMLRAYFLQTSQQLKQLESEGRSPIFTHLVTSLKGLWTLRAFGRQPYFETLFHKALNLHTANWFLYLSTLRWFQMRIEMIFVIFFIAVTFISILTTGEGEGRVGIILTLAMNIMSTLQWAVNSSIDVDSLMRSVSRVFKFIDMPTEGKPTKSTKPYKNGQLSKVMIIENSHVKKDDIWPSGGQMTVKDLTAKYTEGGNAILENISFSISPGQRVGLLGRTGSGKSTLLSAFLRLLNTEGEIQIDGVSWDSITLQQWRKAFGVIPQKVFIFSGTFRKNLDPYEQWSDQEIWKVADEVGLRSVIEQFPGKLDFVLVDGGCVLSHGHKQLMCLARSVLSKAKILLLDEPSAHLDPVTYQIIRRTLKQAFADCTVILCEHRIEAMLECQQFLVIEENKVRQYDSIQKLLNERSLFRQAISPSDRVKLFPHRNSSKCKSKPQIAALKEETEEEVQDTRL

Compound	EC50 [nM]	Maximum % activity [%]
3-[(2R,4R)-4-{[(2R)-6-chloro-2-methyl-3,4-dihydro-2H-1-benzopyran-2-carbonyl]amino}-7-methoxy-3,4-dihydro-2H-1-benzopyran-2-yl]benzoic acid [Example 65]	2140	27.0
3-{(2R,4R)-4-[2-(2H-1,3-benzodioxol-5-yl)-2-methylpropanamido]-7-methoxy-3,4-dihydro-2H-1-benzopyran-2-yl}benzoic acid [Example 38]	160	34.4
4-[(2R,4R)-4-(2-ethyl-2-phenylbutanamido)-7-methoxy-3,4-dihydro-2H-1-benzopyran-2-yl]benzoic acid [Example 79]	> 20000	−0.3
COc1ccc2c(c1)O[C@@H](c1ccc(C(=O)O)cc1)C[C@H]2NC(=O)C1(c2ccccc2)CC1(F)F (mixture of isomers) [Example 105, 4-{(2R,4R)-4-[(2,2-difluoro-1-phenylcyclopropane-1-carbonyl)amino]-7-methoxy-3,4-dihydro-2H-1-benzopyran-2-yl}benzoic acid]	1100	32.0
COC(=O)c1cccc([C@H]2C[C@@H](NC(=O)C3(C)CCc4cc(C)ccc43)c3ccc(OC)cc3O2)c1 (mixture of isomers) [Example 123, methyl 3-{(2R,4R)-4-[(1,5-dimethyl-2,3-dihydro-1H-indene-1-carbonyl)amino]-7-methoxy-3,4-dihydro-2H-1-benzopyran-2-yl}benzoate]	450	80.8
COc1ccc2c(c1)O[C@@H](c1ccc(C(=O)O)cc1)C[C@H]2NC(=O)[C@@]1(C)CCc2cc(C)ccc21 (single isomer, unassigned) [Example 9]	180	95.5
COC(=O)[C@H]1CC[C@@H]([C@H]2C[C@@H](NC(=O)C3(c4ccc5c(c4)OC(F)(F)O5)CC3)c3ccc(OC(F)F)cc3O2)CC1 (single isomer, unassigned) [Example 14D]	630	121.5
COC(=O)[C@H]1CC[C@H]([C@H]2C[C@@H](NC(=O)C3(c4ccc5c(c4)OC(F)(F)O5)CC3)c3ccc(OC(F)F)cc3O2)CC1 (single isomer, unassigned) [Example 14E]	200	125.0
COc1ccc2c(c1)O[C@@H](c1cccc(C(=O)O)c1)C[C@H]2NC(=O)[C@]1(C)CCc2cc(C)ccc21 (single isomer, unassigned) [Example 125]	440	70.7
COc1ccc2c(c1)O[C@@H](c1ccc(C(=O)O)cc1)C[C@H]2NC(=O)[C@]1(C)CCc2cc(C)ccc21 (single isomer, unassigned) [Example 126]	650	72.1
COc1ccc2c(c1)O[C@@H](c1ccc(C(=O)O)cc1)C[C@H]2NC(=O)C(C)(C)c1ccc2c(c1)OC(F)(F)O2 [Example 1, 4-{(2R,4R)-4-[2-(2,2-difluoro-2H-1,3-benzodioxol-5-yl)-2-methylpropanamido]-7-methoxy-3,4-dihydro-2H-1-benzopyran-2-yl}benzoic acid]	550	110.0
COc1ccc2c(c1)O[C@@H](c1ccc(C(=O)O)cc1)C[C@H]2NC(=O)C1(c2ccc(Cl)c(Cl)c2)CC1 [Example 2, 4-[(2R,4R)-4-{[1-(3,4-dichlorophenyl)cyclopropane-1-carbonyl]amino}-7-methoxy-3,4-dihydro-2H-1-benzopyran-2-yl]benzoic acid]	150	95.0
COc1ccc2c(c1)O[C@@H](c1ccc(C(=O)O)cc1)C[C@H]2NC(=O)C1(c2ccc(OC(F)(F)F)cc2)CC1 [Example 3, 4-[(2R,4R)-7-methoxy-4-({1-[4-(trifluoromethoxy)phenyl]cyclopropane-1-carbonyl}amino)-3,4-dihydro-2H-1-benzopyran-2-yl]benzoic acid]	1940	106.0
COc1ccc2c(c1)O[C@@H](c1ccc(C(=O)O)cc1)C[C@H]2NC(=O)C1(c2ccc(Br)cc2)CC1 [Example 4, 4-[(2R,4R)-4-{[1-(4-bromophenyl)cyclopropane-1-carbonyl]amino}-7-methoxy-3,4-dihydro-2H-1-benzopyran-2-yl]benzoic acid]	260	94.2
COc1ccc2c(c1)O[C@@H](c1ccc(C(=O)O)cc1)C[C@H]2NC(=O)C1(c2ccc(C(F)(F)F)cc2)CC1 [Example 5, 4-[(2R,4R)-7-methoxy-4-({1-[4-(trifluoromethyl)phenyl]cyclopropane-1-carbonyl}amino)-3,4-dihydro-2H-1-benzopyran-2-yl]benzoic acid]	210	120.0
COc1ccc2c(c1)O[C@@H](c1ccc(C(=O)O)cc1)C[C@H]2NC(=O)C1(c2ccc(C)cc2)CC1 [Example 6, 4-[(2R,4R)-7-methoxy-4-{[1-(4-methylphenyl)cyclopropane-1-carbonyl]amino}-3,4-dihydro-2H-1-benzopyran-2-yl]benzoic acid]	90	95.9
COc1ccc2c(c1)O[C@@H](c1ccc(C(=O)O)cc1)C[C@H]2NC(=O)C1(C)CCc2cc(C)ccc21 (stereo partly drawn) [Example 7, 4-{(2R,4R)-4-[(1,5-dimethyl-2,3-dihydro-1H-indene-1-carbonyl)amino]-7-methoxy-3,4-dihydro-2H-1-benzopyran-2-yl}benzoic acid]	160	90.1
CCOC(=O)[C@H]1CC[C@H]([C@H]2C[C@@H](NC(=O)C3(c4ccc5c(c4)OC(F)(F)O5)CC3)c3ccc(OC)cc3O2)CC1 [Example 10, ethyl trans-4-[(2R,4R)-4-{[1-(2,2-difluoro-2H-1,3-benzodioxol-5-yl)cyclopropane-1-carbonyl]amino}-7-methoxy-3,4-dihydro-2H-1-benzopyran-2-yl]cyclohexane-1-carboxylate]	290	119.0
CCOC(=O)[C@H]1CC[C@H]([C@H]2C[C@@H](NC(=O)C3(c4ccc5c(c4)OC(F)(F)O5)CC3)c3ccc(OC(F)(F)F)cc3O2)CC1 [Example 12, ethyl trans-4-[(2R,4R)-4-{[1-(2,2-difluoro-2H-1,3-benzodioxol-5-yl)cyclopropane-1-carbonyl]amino}-7-(trifluoromethoxy)-3,4-dihydro-2H-1-benzopyran-2-yl]cyclohexane-1-carboxylate]	70	135.0
COc1ccc2c(c1)OC(c1ccc(OC)c(OC)c1)CC2NC(=O)C1(c2ccccc2)CC(F)(F)C1 (stereo not shown) [Example 16, N-[2-(3,4-dimethoxyphenyl)-7-methoxy-3,4-dihydro-2H-1-benzopyran-4-yl]-3,3-difluoro-1-phenylcyclobutane-1-carboxamide]	> 20000	4.0
COc1ccc2c(c1)OC(c1ccc(OC)c(OC)c1)CC2NC(=O)C1(c2ccc(F)c(F)c2)CCC1 (stereo not shown) [Example 17, 1-(3,4-difluorophenyl)-N-[2-(3,4-dimethoxyphenyl)-7-methoxy-3,4-dihydro-2H-1-benzopyran-4-yl]cyclobutane-1-carboxamide]	3320	27.6
COc1ccc2c(c1)OC(c1ccc(OC)c(OC)c1)CC2NC(=O)C(C)(C)Oc1ccc(Cl)cc1 (stereo not shown) [Example 18, 2-(4-chlorophenoxy)-N-[2-(3,4-dimethoxyphenyl)-7-methoxy-3,4-dihydro-2H-1-benzopyran-4-yl]-2-methylpropanamide]	> 20000	5.5
COc1ccc2c(c1)OC(c1ccc(OC)c(OC)c1)CC2NC(=O)C1(c2cccc(F)c2)CC1 (stereo not shown) [Example 19, N-[2-(3,4-dimethoxyphenyl)-7-methoxy-3,4-dihydro-2H-1-benzopyran-4-yl]-1-(3-fluorophenyl)cyclopropane-1-carb oxamide]	1270	40.8
